Data from ChEMBL document CHEMBL4340569, “Optimization of a small-molecule Lipid II binder” (Bioorg Med Chem Lett, 2019).

Assays:
[1] = system: Staphylococcus aureus; experiment: Antimicrobial activity against Staphylococcus aureus ATCC […] by broth dilution method; format: functional; conditions: ATCC 29213
[2] = Half life in CD1 mouse at […], iv measured after 5 mins to 14 hrs by LC/MS/MS analysis; format: ADME, organism-based; conditions: in vivo; for half-life: CD1, mouse
[3] = AUClast in CD1 mouse at […], iv measured after 5 mins to 14 hrs by LC/MS/MS analysis; format: ADME, organism-based; parameters: time upper 14 hr, dose 2.5 mg/kg, time lower 0.083 hr, route intravenous; conditions: in vivo
[4] = Binding affinity to bacterial lipid 2 by surface plasmon resonance assay; parameters: species or system Bacteria
[5] = system: Acinetobacter baumannii; experiment: Antimicrobial activity against Acinetobacter baumannii ATCC 19606 by broth dilution method; format: functional; conditions: ATCC 19606 = CIP 70.34 = JCM 6841
[6] = Antimicrobial activity against Enterobacter cloacae ATCC 13047 by broth dilution method; format: functional, Enterobacter cloacae subsp. cloacae
[7] = system: Klebsiella aerogenes; experiment: Antimicrobial activity against Klebsiella aerogenes ATCC 13048 by broth dilution method; format: functional
[8] = Toxicity in CD1 mouse assessed as induction of adverse clinical observations at […], iv measured after 5 mins to 14 hrs; format: organism-based; conditions: in vivo
[9] = system: Enterococcus faecium; experiment: Antimicrobial activity against Enterococcus faecium EF1509 by broth dilution method; format: functional
[10] = system: Pseudomonas aeruginosa; experiment: Antimicrobial activity against Pseudomonas aeruginosa ATCC 27853 by broth dilution method; format: functional
[11] = Volume of distribution at steady state in CD1 mouse at […], iv measured after 5 mins to 14 hrs by LC/MS/MS analysis; format: ADME, organism-based; conditions: in vivo; for Vd: CD1, mouse, read-out: Vdss
[12] = system: Klebsiella pneumoniae; experiment: Antimicrobial activity against carbapenemase KPC producing Klebsiella pneumoniae NR-15411 by broth dilution method; format: functional
[13] = Dose normalized AUClast in CD1 mouse at […], iv measured after 5 mins to 14 hrs by LC/MS/MS analysis; format: ADME, organism-based; conditions: in vivo
[14] = Extrapolated AUC in CD1 mouse at […], iv measured after 5 mins to 14 hrs by LC/MS/MS analysis; format: ADME, organism-based; conditions: in vivo
[15] = Cmax in CD1 mouse at […], iv measured after 5 mins to 14 hrs by LC/MS/MS analysis; format: ADME, organism-based; parameters: dose 2.5 mg/kg, route intravenous; conditions: in vivo
[16] = Ratio of EC50 for human HeLa cells to MIC of Enterococcus faecium; format: toxicity
[17] = system: Klebsiella pneumoniae; experiment: Antimicrobial activity against carbapenemase KPC producing Klebsiella pneumoniae NR-15410 by broth dilution method; format: functional
[18] = Cytotoxicity against human HeLa cells incubated for 72 hrs; format: cell-based
[19] = system: Staphylococcus aureus; experiment: Antimicrobial activity against methicillin-resistant Staphylococcus aureus 1094 by broth dilution method; format: functional
[20] = system: Pseudomonas aeruginosa; experiment: Antimicrobial activity against Pseudomonas aeruginosa PAO1 by broth dilution method; format: functional
[21] = MRT in CD1 mouse at […], iv measured after 5 mins to 14 hrs by LC/MS/MS analysis; format: ADME, organism-based; conditions: in vivo
[22] = system: Enterococcus faecium; experiment: Antimicrobial activity against vancomycin-resistant Enterococcus faecium F118 by broth dilution method; format: functional
[23] = AUC (infinity) in CD1 mouse at […], iv measured after 5 mins to 14 hrs by LC/MS/MS analysis; format: ADME, organism-based; parameters: dose 2.5 mg/kg, time infinity, route intravenous; conditions: in vivo
[24] = system: Staphylococcus aureus; experiment: Antimicrobial activity against methicillin-resistant Staphylococcus aureus HFH-30123 by broth dilution method; format: functional
[25] = system: Enterococcus faecium; experiment: Antimicrobial activity against vancomycin-resistant Enterococcus faecium EF1509 by broth dilution method; format: functional
[26] = system: Pseudomonas aeruginosa; experiment: Antimicrobial activity against Pseudomonas aeruginosa X13273 by broth dilution method; format: functional

Structure (SMILES): CN(C)c1ccc(/C=C/c2cc(-c3ccc(F)cc3)cc(-c3ccc(F)cc3)[o+]2)cc1.F[B-](F)(F)F
- MIC [1]: 3.9 µM
- half-life [2]: 6.81 h
- AUC(0-t) [3]: 565 ng·h/mL
- Kd [4]: 0.34 µM
- MIC [5]: ≥ 80 µM
- MIC [6]: ≥ 80 µM
- MIC [7]: ≥ 80 µM
- Activity [8]: Non-Toxic
- MIC [9]: 2 µM
- MIC [10]: ≥ 80 µM
- Vd [11]: 46.3 L/kg
- MIC [12]: ≥ 80 µM
- AUClast/dose [13]: 56.5 ng·h/mL
- %AUCextra [14]: 2.25%
- Cmax [15]: 3220 ng/mL
- selectivity ratio [16]: ≥ 80
- MIC [17]: ≥ 80 µM
- CC50 at 72 h [18]: ≥ 80 µg/mL
- MIC [19]: 4.42 µM
- MIC [20]: ≥ 80 µM
- MRT ([21]; CD1, mouse, read-out: MRT): 1.74 h
- MIC [22]: 6.25 µM
- AUC [23]: 578 ng·h/mL
- MIC [24]: 6.25 µM
- MIC [25]: 1.56 µM
- MIC [26]: ≥ 80 µM

Structure (SMILES): CC(=O)N1CCN(c2ccc(/C=C/c3cc(-c4ccc(F)cc4)cc(-c4ccc(F)cc4)[o+]3)cc2)CC1
- MIC [1]: > 80 µM
- MIC [9]: > 80 µM

Structure (SMILES): ClCCN(CCCl)c1ccc(/C=C/c2cc(-c3ccc(Br)cc3)cc(-c3ccc(Br)cc3)[o+]2)cc1
- MIC [1]: > 80 µM
- MIC [9]: > 80 µM

Structure (SMILES): OCCN(CCO)c1ccc(/C=C/c2cc(-c3ccc(Br)cc3)cc(-c3ccc(Br)cc3)[o+]2)cc1
- MIC [1]: > 80 µM
- MIC [9]: > 80 µM

Structure (SMILES): CN(/C=C/c1cc(-c2cccc(Br)c2)cc(-c2cccc(Br)c2)[o+]1)CCO
- MIC [1]: > 80 µM
- MIC [9]: > 80 µM

Structure (SMILES): CN(C)c1ccc(/C=C/c2cc(-c3ccc(Br)cc3)cc(-c3ccc(Br)cc3)[o+]2)cc1.F[B-](F)(F)F
- MIC [1]: 23.4 to 80 µM
- t1/2 ([2]; mouse): 13.3 h
- Kd [4]: 0.15 µM
- MIC [5]: ≥ 80 µM
- MIC [6]: ≥ 80 µM
- MIC [7]: ≥ 80 µM
- Activity [8]: Non-Toxic
- MIC [9]: 46.8 to 80 µM
- MIC [10]: ≥ 80 µM
- Vdss ([11]; mouse): 22.8 L/kg
- MIC [12]: ≥ 80 µM
- AUClast/dose [13]: 536 ng·h/mL
- %AUCextra [14]: 24.3%
- selectivity ratio [16]: ≥ 80
- MIC [17]: ≥ 80 µM
- CC50 at 72 h [18]: ≥ 80 µg/mL
- MIC [19]: 32 µM
- MIC [20]: ≥ 80 µM
- MRT ([21]; mouse): 7.29 h
- MIC [22]: 5.65 µM
- MIC [24]: 32 µM
- MIC [25]: 2.82 µM
- MIC [26]: ≥ 80 µM

Structure (SMILES): CN1/C(=C/C=C/c2cc(-c3ccccc3)cc(-c3ccccc3)[o+]2)C(C)(C)c2ccccc21.F[B-](F)(F)F
- half-life [2]: 0.227 h
- AUC(0-t) [3]: 26.9 ng·h/mL
- Activity [8]: Non-Toxic
- Vd [11]: 12.2 L/kg
- AUClast/dose [13]: 26.9 ng·h/mL
- %AUCextra [14]: 4.38%
- Cmax [15]: 101 ng/mL
- MRT ([21]; CD1, mouse, read-out: MRT): 0.226 h
- AUC [23]: 27.9 ng·h/mL

Structure (SMILES): CCC(=O)N1CCN(c2ccc(/C=C/c3cc(-c4cccc(Br)c4)cc(-c4cccc(Br)c4)[o+]3)cc2)CC1
- MIC [1]: 12.8 µM
- MIC [9]: 51.4 µM

Structure (SMILES): ClCCN(/C=C/c1cc(-c2cccc(Br)c2)cc(-c2cccc(Br)c2)[o+]1)CCCl
- MIC [1]: 49.3 µM
- MIC [9]: 49.3 µM

Structure (SMILES): OCCN(CCO)c1ccc(/C=C/c2cc(-c3cccc(F)c3)cc(-c3cccc(F)c3)[o+]2)cc1
- MIC [1]: 2.1 µM
- Kd [4]: 0.31 µM
- MIC [5]: ≥ 80 µM
- MIC [6]: ≥ 80 µM
- MIC [7]: ≥ 80 µM
- MIC [9]: 3.9 µM
- MIC [10]: ≥ 80 µM
- MIC [12]: ≥ 80 µM
- selectivity ratio [16]: 49.3
- MIC [17]: ≥ 80 µM
- CC50 at 72 h [18]: ≥ 80 µg/mL
- MIC [19]: 12.5 µM
- MIC [20]: ≥ 80 µM
- MIC [22]: 12.5 µM
- MIC [24]: 12.5 µM
- MIC [25]: 3.13 µM
- MIC [26]: ≥ 80 µM

Structure (SMILES): Brc1ccc(-c2cc(/C=C/c3ccc(N4CCOCC4)cc3)[o+]c(-c3ccc(Br)cc3)c2)cc1
- MIC [1]: > 80 µM
- MIC [9]: > 80 µM

Structure (SMILES): O=C(c1ccccc1)N1CCN(c2ccc(/C=C/c3cc(-c4ccc(F)cc4)cc(-c4ccc(F)cc4)[o+]3)cc2)CC1
- MIC [1]: 28.5 µM
- MIC [9]: 57 µM

Structure (SMILES): CN(C)c1ccc(/C=C/c2ccc(/C=C/c3cc(-c4ccc(Br)cc4)cc(-c4ccc(Br)cc4)[o+]3)cc2)cc1
- MIC [1]: > 80 µM
- MIC [9]: > 80 µM

Structure (SMILES): Brc1ccc(-c2cc(/C=C/c3ccc(N4CCCCC4)cc3)[o+]c(-c3ccc(Br)cc3)c2)cc1
- MIC [1]: > 80 µM
- MIC [9]: > 80 µM

Structure (SMILES): CN1/C(=C/C=C/c2cc(-c3ccc(Br)cc3)cc(-c3ccc(Br)cc3)[o+]2)C(C)(C)c2cc(Cl)ccc21
- MIC [1]: 45.1 µM
- MIC [9]: 22.5 µM

Structure (SMILES): CN(CCO)c1ccc(/C=C/c2cc(-c3ccc(Br)cc3)cc(-c3ccc(Br)cc3)[o+]2)cc1
- MIC [1]: > 80 µM
- MIC [9]: > 80 µM

Structure (SMILES): CN1/C(=C/c2ccc(/C=C/c3cc(-c4ccc(Br)cc4)cc(-c4ccc(Br)cc4)[o+]3)cc2)C(C)(C)c2ccccc21
- MIC [1]: 24.5 µM
- MIC [9]: 12.2 µM

Structure (SMILES): Fc1ccc(-c2cc(/C=C/N3CCNCC3)[o+]c(-c3ccc(F)cc3)c2)cc1
- MIC [1]: 3.8 µM
- Kd [4]: 6.2 µM
- MIC [5]: ≥ 80 µM
- MIC [6]: ≥ 80 µM
- MIC [7]: ≥ 80 µM
- MIC [9]: 1.9 µM
- MIC [10]: ≥ 80 µM
- MIC [12]: ≥ 80 µM
- selectivity ratio [16]: 62.6
- MIC [17]: ≥ 80 µM
- CC50 at 72 h [18]: ≥ 80 µg/mL
- MIC [19]: 6.25 µM
- MIC [20]: ≥ 80 µM
- MIC [22]: 8.84 µM
- MIC [24]: 6.25 µM
- MIC [25]: 3.13 µM
- MIC [26]: ≥ 80 µM

Structure (SMILES): CCN(CC)c1ccc(/C=C/c2cc(-c3ccc(Br)cc3)cc(-c3ccc(Br)cc3)[o+]2)cc1
- MIC [1]: > 80 µM
- MIC [9]: > 80 µM

Structure (SMILES): CC(C)(C)OC(=O)N1CCN(c2ccc(/C=C/c3cc(-c4ccc(F)cc4)cc(-c4ccc(F)cc4)[o+]3)cc2)CC1
- MIC [1]: > 80 µM
- MIC [9]: > 80 µM
